Test results reported in patent US20170152226A1, “FUNCTIONALISED AND SUBSTITUTED INDOLES AS ANTI-CANCER AGENTS” (Novogen Ltd., priority 2014, published 2017).
Read-outs that look alike come from different tables or passages of the source.

Key:
Experiment in all cases: Anti-proliferative activity, cell-titre luminescent viability assay
Assay type in all cases: cell-based
PC3 = settings: Homo sapiens, read-out: IC50 Prostate PC3
Procedure: (§1) The ability of compounds 3501-3540 and 3542-3545 to inhibit the proliferation of cancer cells representative of neuroblastoma, melanoma, prostate cancer, colorectal cancer, non-small cell lung carcinoma, and triple negative breast cancer was assessed. Briefly, a pre-determined number of cells as calculated from cell growth assays for each of the cell lines employed were seeded into their respective culture medium (using ATCC culture parameters—http://www.atcc.org) and cultured for 24 hours at 37° C. and 5% CO2 in 96-well culture plates. Once attached, each cell line was then exposed to increasing concentrations of each respective analogue (0.03, 0.3, 3 and 30 μM for compounds in Table 1; 0.1, 0.3, 1, 3, 10 and 30 μM for compounds in Table 2), cultured for a further 72 hours and exposed to cell-titre luminescent reagent (100 μL/well) for a further 30 min) to assess for cell viability. Luminescence was captured using an EnVision multilabel reader and the data for each analogue concentration was normalized, as a percentage, to the no treatment control. For compounds 3501, 3503, 3505-08, 3512-18, 3520, 3522-24 and 3531-36, semi-log plots of Percent of Control versus concentration were prepared and IC50 determined using linear regression analysis. For compounds 3502, 3504, 3509-11, 3519, 3521, 3525-30, 3537-40 and 3542-45, cell viability was normalized to control (vehicle alone) and dose-response curves, and half maximal effective concentration (EC50) values were determined using Graph Pad Prism 6 (nonlinear regression sigmoidal dose-response variable slope).

CaCo2 = settings: read-out: IC50 Colorectal CaCo2
Procedure: as §1

SK-Mel-28 = settings: Homo sapiens, SK-MEL-28, 72 hours, read-out: IC50 Melanoma SK-Mel-28
Procedure: as §1

MDA-MB-231 = settings: Homo sapiens, read-out: IC50 Breast MDA-MB-231
Procedure: as §1

A549 = settings: Homo sapiens, read-out: IC50 Lung (NSLC) A549
Procedure: as §1

SK-N-SH = settings: Homo sapiens, SK-N-SH, read-out: IC50 Neuroblastoma SK-N-SH
Procedure: as §1

DU145 = settings: Homo sapiens, read-out: IC50 Prostate DU145
Procedure: as §1

[1] = PC-3, 72 h, 0.1, 0.3, 1, 3, 10 and 30 μM, nonlinear regression sigmoidal dose-response (EC50)
[2] = Homo sapiens, Caco-2, 72 h, 0.1, 0.3, 1, 3, 10 and 30 μM, nonlinear regression sigmoidal dose-response (EC50)
[3] = 0.1, 0.3, 1, 3, 10 and 30 μM, nonlinear regression sigmoidal dose-response (EC50)
[4] = MDA-MB-231, 72 h, 0.1, 0.3, 1, 3, 10 and 30 μM, nonlinear regression sigmoidal dose-response (EC50)
[5] = A549, 72 h, 0.1, 0.3, 1, 3, 10 and 30 μM, nonlinear regression sigmoidal dose-response (EC50)
[6] = 72 h, 0.1, 0.3, 1, 3, 10 and 30 μM, nonlinear regression sigmoidal dose-response (EC50)
[7] = DU-145, 72 h, 0.1, 0.3, 1, 3, 10 and 30 μM, nonlinear regression sigmoidal dose-response (EC50)
[8] = PC-3, 72 h, 0.03, 0.3, 3 and 30 μM, linear regression of semi-log plots
[9] = 0.03, 0.3, 3 and 30 μM, linear regression of semi-log plots
[10] = MDA-MB-231, 72 h, 0.03, 0.3, 3 and 30 μM, linear regression of semi-log plots
[11] = A549, 72 h, 0.03, 0.3, 3 and 30 μM, linear regression of semi-log plots
[12] = 72 h, 0.03, 0.3, 3 and 30 μM, linear regression of semi-log plots
[13] = DU-145, 72 h, 0.03, 0.3, 3 and 30 μM, linear regression of semi-log plots
[14] = Homo sapiens, Caco-2, 72 h, 0.03, 0.3, 3 and 30 μM, linear regression of semi-log plots

Compound | IC50 (PC3; [1]) [µM] | IC50 (CaCo2; [2]) [µM] | IC50 (SK-Mel-28; [3]) [nM] | IC50 (MDA-MB-231; [4]) [µM] | IC50 (A549; [5]) [µM] | IC50 (SK-N-SH; [6]) [nM] | IC50 (DU145; [7]) [µM] | IC50 (PC3; [8]) [µM] | IC50 (CaCo2; 72 hours, 0.03, 0.3, 3 and 30 μM, linear regression of semi-log plots) [µM] | IC50 (SK-Mel-28; [9]) [nM] | IC50 (MDA-MB-231; [10]) [µM] | IC50 (A549; [11]) [µM] | IC50 (SK-N-SH; [12]) [nM] | IC50 (DU145; [13]) [µM] | IC50 (CaCo2; [14]) [µM]
COc1ccc(CCN2CCN(C(=O)c3ccc(Oc4ccc5c(c4)c(C)c(C)n5CCCN4CCN(C)CC4)cc3)CC2)cc1 [Compound 3526] | 15.6 | 5.3 | 4800 | 13.4 | 3 | 4800 | 9 |  |  |  |  |  |  |  | 
COc1cccc(CCN2CCN(C(=O)c3cccc(Oc4ccc5c(c4)c(C)c(C)n5CCCN4CCN(C)CC4)c3)CC2)c1 [Compound 3511, (3-((2,3-dimethyl-1-(3-(4-methylpiperazin-1-yl)propyl)-1H-indol-5-yl)oxy)phenyl)(4-(3-methoxyphenethyl)piperazin-1-yl)methanone] | 2.6 | 3.5 | 6500 | 19.3 | 2.6 | 2100 | 3.3 |  |  |  |  |  |  |  | 
COc1ccc(CCN2CCN(C(=O)c3ccc(Nc4ccc5c(c4)c(C)c(C)n5CCCN4CCN(C)CC4)cc3)CC2)cc1 [Compound 3532, (4-((2,3-dimethyl-1-(3-(4-methylpiperazin-1-yl)propyl)-1H-indol-5-yl)amino)phenyl)(4-(4-methoxyphenethyl)piperazin-1-yl)methanone] |  |  |  |  |  |  |  | 4.2 | 3.1 | 2700 | 1.9 | 2.2 | 2300 | 4 | 
COc1ccc(CCN2CCN(C(=O)c3cccc(Cc4ccc5c(c4)c(C)c(C)n5CCCN4CCN(C)CC4)c3)CC2)cc1 [Compound 3502, (3-((2,3-dimethyl-1-(3-(4-methylpiperazin-1-yl)propyl)-1H-indol-5-yl)methyl)phenyl)(4-(4-methoxyphenethyl)piperazin-1-yl)methanone] | 5.4 | 5.8 | 2600 | 4.9 | 5 | 4600 | 4.9 |  |  |  |  |  |  |  | 
Cc1c(C)n(CCCN2CCN(C)CC2)c2ccc(Cc3cccc(C(=O)N4CCN(CCc5ccc(F)cc5)CC4)c3)cc12 [Compound 3501, (3-((2,3-dimethyl-1-(3-(4-methylpiperazin-1-yl)propyl)-1H-indol-5-yl)methyl)phenyl)(4-(4-fluorophenethyl)piperazin-1-yl)methanone] |  |  |  |  |  |  |  | 2.4 |  | 1300 | 2.1 | 3.7 | 3100 | 2.6 | 3.1
Cc1c(C)n(CCCN2CCN(C)CC2)c2ccc(Cc3ccc(C(=O)N4CCN(CCc5ccc(F)cc5)CC4)cc3)cc12 [Compound 3519, (4-((2,3-dimethyl-1-(3-(4-methylpiperazin-1-yl)propyl)-1H-indol-5-yl)methyl)phenyl)(4-(4-fluorophenethyl)piperazin-1-yl)methanone] | 4.9 | 5.6 | 2500 | 5 | 4.4 | 2600 | 4.3 |  |  |  |  |  |  |  | 
Cc1c(C)n(CCCN2CCN(C)CC2)c2ccc(Nc3cccc(C(=O)N4CCN(CCc5ccc6c(c5)OCO6)CC4)c3)cc12 [Compound 3515, (4-(2-(benzo[d][1,3]dioxol-5-yl)ethyl)piperazin-1-yl)(3-((2,3-dimethyl-1-(3-(4-methylpiperazin-1-yl)propyl)-1H-indol-5-yl)amino)phenyl)methanone] |  |  |  |  |  |  |  | 4.9 |  | 2700 | 3.3 | 4.3 | 3400 | 4 | 4.6
COc1ccc(CCN2CCN(C(=O)c3cccc(Oc4ccc5c(c4)c(C)c(C)n5CCCN4CCN(C)CC4)c3)CC2)cc1 [Compound 3508, (3-((2,3-dimethyl-1-(3-(4-methylpiperazin-1-yl)propyl)-1H-indol-5-yl)oxy)phenyl)(4-(4-methoxyphenethyl)piperazin-1-yl)methanone] |  |  |  |  |  |  |  | 2.4 |  | 1600 | 1.8 | 1.8 | 1700 | 3.1 | 3.1
Cc1c(C)n(CCCN2CCN(C)CC2)c2ccc(Cc3cccc(C(=O)N4CCN(CCc5cccc6ccccc56)CC4)c3)cc12 [Compound 3539, (3-((2,3-dimethyl-1-(3-(4-methylpiperazin-1-yl)propyl)-1H-indol-5-yl)methyl)phenyl)(4-(2-(naphthalen-1-yl)ethyl)piperazin-1-yl)methanone] | 3 | 4.6 | 2200 | 2.8 | 3.9 | 1700 | 3.9 |  |  |  |  |  |  |  | 
Cc1c(C)n(CCCN2CCN(C)CC2)c2ccc(Oc3cccc(C(=O)N4CCN(CCc5ccc6c(c5)OCO6)CC4)c3)cc12 [Compound 3509, (4-(2-(benzo[d][1,3]dioxol-5-yl)ethyl)piperazin-1-yl)(3-((2,3-dimethyl-1-(3-(4-methylpiperazin-1-yl)propyl)-1H-indol-5-yl)oxy)phenyl)methanone] | 6.9 | 5.2 | 5100 | 5 | 4.7 | 5300 | 5.9 |  |  |  |  |  |  |  | 
COc1ccc2cccc(CCN3CCN(C(=O)c4cccc(Cc5ccc6c(c5)c(C)c(C)n6CCCN5CCN(C)CC5)c4)CC3)c2c1 [Compound 3540, (3-((2,3-dimethyl-1-(3-(4-methylpiperazin-1-yl)propyl)-1H-indol-5-yl)methyl)phenyl)(4-(2-(7-methoxynaphthalen-1-yl)ethyl)piperazin-1-yl)methanone] | 2.3 | 4 | 1900 | 2.3 | 5 | 1700 | 4.6 |  |  |  |  |  |  |  | 
